# The supplement of paper PMC11061612
# Tests used:
# Assay in all cases: combination Emax (second highest fraction inhibited in the dose matrix, 72 h); higher = more inhibition; extreme values may be limits of the assay
# [1] = tested on: BHT-101 (Thyroid Gland Carcinoma)
# Method in brief: (§1)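 After 24 hours at 37°C and 5% CO2 in 1536-well plates, cells in DMEM/F12 or RPMI plus 10% FBS received two-drug dose matrices for 72 hours. Viability came from CellTiter-Glo 2.0 luminescence and was scaled as inhibition, anchored at 0 by vehicle wells and at 1 by blank wells. Combination Emax is taken as the second-highest inhibition in the matrix, and Bliss excess as the observed combination effect less EA + EB − EA·EB, with EA and EB the single-agent effects.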
# [2] = tested on: KP-4 (Pancreatic Carcinoma)
# Method in brief: as §1
# [3] = tested on: NCI-H1876 (Small Cell Lung Carcinoma)
# Method in brief: as §1
# [4] = tested on: NCI-H596 (Other Solid Carcinomas)
# Method in brief: as §1
# NCI-H226 (Mesothelioma) = tested on: NCI-H226 (Mesothelioma)
# Method in brief: as §1
# [5] = tested on: SK-CO-1 (Colorectal Carcinoma)
# Method in brief: as §1
# [6] = tested on: PA-TU-8988T (Pancreatic Carcinoma)
# Method in brief: as §1
# [7] = tested on: MOLT-13 (T-Lymphoblastic Leukemia)
# Method in brief: as §1
# GAK (Melanoma) = tested on: GAK (Melanoma)
# Method in brief: as §1
# [8] = tested on: MDA-MB-415 (Breast Carcinoma)
# Method in brief: as §1
# [9] = tested on: IA-LM (Non-Small Cell Lung Carcinoma)
# Method in brief: as §1
# [10] = tested on: SCC-4 (Oral Cavity Carcinoma)
# Method in brief: as §1
# [11] = tested on: CPC-N (Small Cell Lung Carcinoma)
# Method in brief: as §1
# [12] = tested on: LCLC-103H (Non-Small Cell Lung Carcinoma)
# Method in brief: as §1
# SK-N-SH (Neuroblastoma) = tested on: SK-N-SH (Neuroblastoma)
# Method in brief: as §1
# [13] = tested on: MONO-MAC-6 (Acute Myeloid Leukemia)
# Method in brief: as §1
# [14] = tested on: OVCAR-3 (Ovarian Carcinoma)
# Method in brief: as §1
# ES6 (Ewing's Sarcoma) = tested on: ES6 (Ewing's Sarcoma)
# Method in brief: as §1
# [15] = tested on: SNU-407 (Colorectal Carcinoma)
# Method in brief: as §1
# [16] = tested on: NCI-H1963 (Small Cell Lung Carcinoma)
# Method in brief: as §1
Compound,combination Emax [1],combination Emax [2],combination Emax [3],combination Emax [4],combination Emax (NCI-H226 (Mesothelioma)),combination Emax [5],combination Emax [6],combination Emax [7],combination Emax (GAK (Melanoma)),combination Emax [8],combination Emax [9],combination Emax [10],combination Emax [11],combination Emax [12],combination Emax (SK-N-SH (Neuroblastoma)),combination Emax [13],combination Emax [14],combination Emax (ES6 (Ewing's Sarcoma)),combination Emax [15],combination Emax [16]
"C[C@@H]1COCCN1c1cc(C2([S@](C)(=N)=O)CC2)nc(-c2ccnc3[nH]ccc23)n1 [AZD6738] + O=C(c1cc(Cc2n[nH]c(=O)c3ccccc23)ccc1F)N1CCN(C(=O)C2CC2)CC1 [Olaparib] (first compound max 10 µM, 7x7, partner max 10 µM)",0.663,0.706,0.945,0.5,0.207,0.768,0.448,0.999,0.564,0.446,0.399,0.729,0.912,0.504,0.929,0.948,0.555,0.522,0.75,0.804
"Cc1cc2ncnn2cc1Nc1ncc2c(n1)n(C1CCOCC1)c(=O)n2C [AZD7648] + C=CCn1c(=O)c2cnc(Nc3ccc(N4CCN(C)CC4)cc3)nc2n1-c1cccc(C(C)(C)O)n1 [AZD1775] (first compound max 10 µM, partner max 1 µM)",0.471,0.59,0.976,0.357,0.297,0.521,0.749,0.953,0.713,0.488,0.42,0.466,0.931,0.552,0.884,0.909,0.411,0.505,0.446,0.873
"Cc1cc2ncnn2cc1Nc1ncc2c(n1)n(C1CCOCC1)c(=O)n2C [AZD7648] + CCN(CCO)CCCOc1ccc2c(Nc3cc(CC(=O)Nc4cccc(F)c4)[nH]n3)ncnc2c1 [AZD2811] (first compound max 10 µM, 7x7, partner max 1 µM)",0.25,0.4,0.794,0.243,0.253,0.549,0.33,0.973,0.237,0.472,0.268,0.307,0.795,0.377,0.625,0.787,0.116,0.407,0.376,0.866
"Cc1cc2ncnn2cc1Nc1ncc2c(n1)n(C1CCOCC1)c(=O)n2C [AZD7648] + CN(C)CCCOc1ccc(-c2ccc3ncc4c(c3c2)n(C2CCOCC2)c(=O)n4C)cn1 [AZD0156] (first compound max 10 µM, 7x7, partner max 1 µM)",0.366,0.23,0.317,0.243,0.271,0.309,0.271,0.15,0.303,0.504,0.35,0.219,0.368,0.338,0.366,0.497,0.116,0.37,0.179,0.211
"Cc1cc2ncnn2cc1Nc1ncc2c(n1)n(C1CCOCC1)c(=O)n2C [AZD7648] + C[C@@H]1COCCN1C2=NC(=NC(=C2)C3(CC3)[S@](=N)(=O)C)C4=C5C=CNC5=NC=C4 [AZD6738] (first compound max 10 µM, 7x7, partner max 10 µM)",0.626,0.44,0.809,0.365,0.304,0.563,0.378,0.903,0.578,0.515,0.402,0.575,0.911,0.58,0.859,0.899,0.233,0.601,0.663,0.728
"Cc1cc2ncnn2cc1Nc1ncc2c(n1)n(C1CCOCC1)c(=O)n2C [AZD7648] + O=C(c1cc(Cc2n[nH]c(=O)c3ccccc23)ccc1F)N1CCN(C(=O)C2CC2)CC1 [Olaparib] (first compound max 10 µM, 7x7, partner max 10 µM)",0.383,0.181,0.723,0.361,0.149,0.488,0.339,0.35,0.0973,0.263,0.158,0.259,0.31,0.299,0.444,0.317,0.145,0.222,0.239,0.299
"NC1(C(=O)N[C@@H](CCO)c2ccc(Cl)cc2)CCN(c2ncnc3[nH]ccc23)CC1 [Capivasertib] + CC(=O)c1c(C)c2cnc(Nc3ccc(N4CCNCC4)cn3)nc2n(C2CCCC2)c1=O [Palbociclib] (first compound max 10 µM, 7x7, partner max 10 µM)",0.675,0.595,0.253,0.596,0.3,0.419,0.456,0.732,0.474,0.769,0.206,0.271,0.382,0.448,0.454,0.728,0.379,0.46,0.678,0.477
"NC1(C(=O)N[C@@H](CCO)c2ccc(Cl)cc2)CCN(c2ncnc3[nH]ccc23)CC1 [Capivasertib] + CC(C)n1c(=O)n(C)c2cnc3cc(F)c(-c4ccc(OCCCN5CCCCC5)nc4)cc3c21 [AZD1390] (first compound max 10 µM, 7x7, partner max 0.3 µM)",0.341,0.355,0.172,0.542,0.335,0.281,0.278,0.132,0.219,0.846,0.263,0.227,0.399,0.267,0.349,0.594,0.227,0.349,0.503,0.434
"NC1(C(=O)N[C@@H](CCO)c2ccc(Cl)cc2)CCN(c2ncnc3[nH]ccc23)CC1 [Capivasertib] + CCN(CCO)CCCOc1ccc2c(Nc3cc(CC(=O)Nc4cccc(F)c4)[nH]n3)ncnc2c1 [AZD2811] (first compound max 10 µM, 7x7, partner max 1 µM)",0.353,0.682,0.941,0.564,0.311,0.64,0.546,0.992,0.219,0.837,0.304,0.333,0.781,0.413,0.476,0.817,0.344,0.418,0.714,0.93
"NC1(C(=O)N[C@@H](CCO)c2ccc(Cl)cc2)CCN(c2ncnc3[nH]ccc23)CC1 [Capivasertib] + COc1nnc2ccc(N3CCC(c4ccc(OCCN5CCN(C)C(=O)[C@H]5C)cc4)CC3)nn12 [AZD5153] (first compound max 10 µM, 7x7, partner max 1 µM)",0.759,0.58,0.579,0.639,0.402,0.438,0.798,0.873,0.376,0.9,0.317,0.678,0.811,0.559,0.624,1,0.526,0.518,0.882,0.767
"NC1(C(=O)N[C@@H](CCO)c2ccc(Cl)cc2)CCN(c2ncnc3[nH]ccc23)CC1 [Capivasertib] + C[C@@H]1COCCN1C2=NC(=NC(=C2)C3(CC3)[S@](=N)(=O)C)C4=C5C=CNC5=NC=C4 [AZD6738] (first compound max 10 µM, 7x7, partner max 10 µM)",0.681,0.597,0.934,0.575,0.358,0.668,0.625,0.957,0.509,0.846,0.324,0.558,0.894,0.524,0.872,0.917,0.461,0.667,0.82,0.885
"NC1(C(=O)N[C@@H](CCO)c2ccc(Cl)cc2)CCN(c2ncnc3[nH]ccc23)CC1 [Capivasertib] + Cn1cnc2c(F)c(Nc3ccc(Br)cc3Cl)c(C(=O)NOCCO)cc21 [Selumetinib] (first compound max 10 µM, 7x7, partner max 10 µM)",0.902,0.483,0.239,0.575,0.316,0.886,0.689,0.555,0.757,0.85,0.374,0.778,0.332,0.389,0.333,0.847,0.317,0.434,0.767,0.492
"Cc1nc(Nc2ncc(C(=O)Nc3c(C)cccc3Cl)s2)cc(N2CCN(CCO)CC2)n1 [Dasatinib] + CC(=O)Nc1cccc(-n2c(=O)n(C3CC3)c(=O)c3c(Nc4ccc(I)cc4F)n(C)c(=O)c(C)c32)c1 [Trametinib] (first compound max 2 µM, 7x7, partner max 1 µM)",0.998,0.735,0.165,0.607,0.458,0.994,0.887,0.559,0.788,0.385,0.654,0.712,0.0279,0.326,0.476,0.589,0.494,0.439,0.756,0.38
